# Assay: Biodistribution study in LNCaP tumor-bearing mice (Th227 counted in organs)
# Assay type: in vivo, SCID mice
# Outline: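 SCID mice bearing testosterone pellets and subcutaneous LNCaP flank tumors (~50 mm^2) received a single intravenous dose of the radioactive compound. At set time points, n=3 animals were sacrificed, and organs were removed, weighed and counted for Th227 on a Germanium detector.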
# [1] = 0.25 h, 500 kBq/kg, study b2999
compound,measurement,setting,value
"O=C([O-])CN1CCN(CC(=O)[O-])CCN(CC(=O)NCC2CCC(C(=O)NC(Cc3ccc4ccccc4c3)C(=O)NCCCCC(NC(=O)NC(CCC(=O)O)C(=O)O)C(=O)O)CC2)CCN(CC(=O)[O-])CC1.[227Th+4] [Example 1-B-227Th, [^227Th]Thorium (3S,10S,14S)-3-[(naphthalen-2-yl)methyl]-1,4,12-trioxo-1-{(1r,4S)-4-[(2-{4,7,10-tris[(carboxy-kappaO)methyl]-1,4,7,10-tetraazacyclododecan-1-yl-kappa^4N^1,N^4,N^7,N^10}acetamido)methyl]cyclohexyl}-2,5,11,13-tetraazahexadecane-10,14,16-tricarboxylate]",Th-227 in Blood,[1],1.68 % ID Th-227/g organ
same,Th-227 in Femur and tibia,[1],1.31 % ID Th-227/g organ
same,Th-227 in Kidneys,[1],114.94 % ID Th-227/g organ
same,Th-227 in Liver,[1],0.92 % ID Th-227/g organ
same,Th-227 in Salivary gland,[1],10.22 % ID Th-227/g organ
same,Th-227 in Spleen,[1],6.51 % ID Th-227/g organ
same,Th-227 in Tumor,[1],8.41 % ID Th-227/g organ
same,Th-227 in prostate,[1],8.53 % ID Th-227/g organ
same,Th-227 in Blood,"0.25 h, 1500 kBq/kg",6.68% ID Th-227/g organ
same,Th-227 in Liver,"0.25 h, 1500 kBq/kg",2.01% ID Th-227/g organ
same,Th-227 in Spleen,"0.25 h, 1500 kBq/kg",11.41% ID Th-227/g organ
same,Th-227 in Tumor,"0.25 h, 1500 kBq/kg",6.89% ID Th-227/g organ
same,Th-227 in bone,"0.25 h, 1500 kBq/kg",2.42% ID Th-227/g organ
same,Th-227 in brain,"0.25 h, 1500 kBq/kg",0.27% ID Th-227/g organ
same,Th-227 in kidney,"0.25 h, 1500 kBq/kg",36.39% ID Th-227/g organ
same,Th-227 in large intestine,"0.25 h, 1500 kBq/kg",1.08% ID Th-227/g organ
same,Th-227 in lung,"0.25 h, 1500 kBq/kg",4.42% ID Th-227/g organ
same,Th-227 in muscle,"0.25 h, 1500 kBq/kg",1.06% ID Th-227/g organ
same,Th-227 in prostate,"0.25 h, 1500 kBq/kg",7.80% ID Th-227/g organ
same,Th-227 in salivary glands,"0.25 h, 1500 kBq/kg",2.81% ID Th-227/g organ
same,Th-227 in small intestine,"0.25 h, 1500 kBq/kg",1.14% ID Th-227/g organ
same,Th-227 in Blood,"1 hr, 500 kBq/kg, study b2999",0.37 % ID Th-227/g organ
same,Th-227 in Femur and tibia,"1 hr, 500 kBq/kg, study b2999",0.78 % ID Th-227/g organ
same,Th-227 in Kidneys,"1 hr, 500 kBq/kg, study b2999",150.81 % ID Th-227/g organ
same,Th-227 in Liver,"1 hr, 500 kBq/kg, study b2999",0.41 % ID Th-227/g organ
same,Th-227 in Salivary gland,"1 hr, 500 kBq/kg, study b2999",17.15 % ID Th-227/g organ
same,Th-227 in Spleen,"1 hr, 500 kBq/kg, study b2999",6.04 % ID Th-227/g organ
same,Th-227 in Tumor,"1 hr, 500 kBq/kg, study b2999",10.87 % ID Th-227/g organ
same,Th-227 in prostate,"1 hr, 500 kBq/kg, study b2999",9.05 % ID Th-227/g organ
same,Th-227 in Blood,"1 hr, 1500 kBq/kg",3.85% ID Th-227/g organ
same,Th-227 in Liver,"1 hr, 1500 kBq/kg",1.99% ID Th-227/g organ
same,Th-227 in Spleen,"1 hr, 1500 kBq/kg",9.16% ID Th-227/g organ
same,Th-227 in Tumor,"1 hr, 1500 kBq/kg",7.34% ID Th-227/g organ
same,Th-227 in bone,"1 hr, 1500 kBq/kg",5.16% ID Th-227/g organ
same,Th-227 in brain,"1 hr, 1500 kBq/kg",0.07% ID Th-227/g organ
same,Th-227 in kidney,"1 hr, 1500 kBq/kg",38.11% ID Th-227/g organ
same,Th-227 in large intestine,"1 hr, 1500 kBq/kg",0.57% ID Th-227/g organ
same,Th-227 in lung,"1 hr, 1500 kBq/kg",2.88% ID Th-227/g organ
same,Th-227 in muscle,"1 hr, 1500 kBq/kg",0.76% ID Th-227/g organ
same,Th-227 in prostate,"1 hr, 1500 kBq/kg",1.15% ID Th-227/g organ
same,Th-227 in salivary glands,"1 hr, 1500 kBq/kg",1.62% ID Th-227/g organ
same,Th-227 in small intestine,"1 hr, 1500 kBq/kg",0.84% ID Th-227/g organ
same,Th-227 in Blood,"4 hr, 1500 kBq/kg",1.05% ID Th-227/g organ
same,Th-227 in Liver,"4 hr, 1500 kBq/kg",1.32% ID Th-227/g organ
same,Th-227 in Spleen,"4 hr, 1500 kBq/kg",6.17% ID Th-227/g organ
same,Th-227 in Tumor,"4 hr, 1500 kBq/kg",13.09% ID Th-227/g organ
same,Th-227 in bone,"4 hr, 1500 kBq/kg",7.25% ID Th-227/g organ
same,Th-227 in brain,"4 hr, 1500 kBq/kg",0.04% ID Th-227/g organ
same,Th-227 in kidney,"4 hr, 1500 kBq/kg",32.13% ID Th-227/g organ
same,Th-227 in large intestine,"4 hr, 1500 kBq/kg",0.76% ID Th-227/g organ
same,Th-227 in lung,"4 hr, 1500 kBq/kg",1.55% ID Th-227/g organ
same,Th-227 in muscle,"4 hr, 1500 kBq/kg",0.37% ID Th-227/g organ
same,Th-227 in prostate,"4 hr, 1500 kBq/kg",1.06% ID Th-227/g organ
same,Th-227 in salivary glands,"4 hr, 1500 kBq/kg",0.72% ID Th-227/g organ
same,Th-227 in small intestine,"4 hr, 1500 kBq/kg",0.74% ID Th-227/g organ
same,Th-227 in Blood,"6 hr, 500 kBq/kg, study b2999",0.06 % ID Th-227/g organ
same,Th-227 in Femur and tibia,"6 hr, 500 kBq/kg, study b2999",0.31 % ID Th-227/g organ
same,Th-227 in Kidneys,"6 hr, 500 kBq/kg, study b2999",67.34 % ID Th-227/g organ
same,Th-227 in Liver,"6 hr, 500 kBq/kg, study b2999",0.19 % ID Th-227/g organ
same,Th-227 in Salivary gland,"6 hr, 500 kBq/kg, study b2999",2.84 % ID Th-227/g organ
same,Th-227 in Spleen,"6 hr, 500 kBq/kg, study b2999",0.73 % ID Th-227/g organ
